Measured values taken from patent US20240358842A1, “PROTEIN STABILIZING COMPOUNDS CONTAINING USP7 LIGANDS” (Stablix, Inc., priority 2021, published 2024).
Like-named read-outs stand apart in the source and are kept apart here.

Key:
USP7 = USP7 (Homo sapiens, UniProt Q93009); test: Ub-Rho cleavage assay; assay type: biochemical; settings: Ub-Rho substrate, recombinant USP7; read-out: Ub (Rho) USP7.1 (IC50)
Procedure: All fluorescence measurements were performed on a Molecular Devices FlexStation3 with excitation at 480 nm and emission 540 nm, PMT Gain: Medium, Flash Number: 10. […] Assay buffer for all measurements was 50 mM HEPES, 100 mM NaCl, 0.5 mM EDTA, 1 mM TCEP, 0.1 mg/ml BSA, 0.01% Tween-20, pH 7.8. […] Serial dilutions were made with a Mosquito HTS (SPT Labtech) nanoliter liquid handler. 200 nL of each compound in duplicate or DMSO control were transferred to the assay plate. The first two columns served as positive controls. 9.8 μl per well of USP7 working solution was added to the assay plate. Compound+Protein was incubated for 25 min at 25° C. 10 uL of Ub-Rho substrate was added per well and incubated for an additional 15 min at 25° C. Fluorescence was then measured. Percent response relative to DMSO controls was calculated in GraphPad or Scinamic, and the data was fitted to a non-linear regression to determine IC50 values.

USP7 CD + UBL 1-5 = molecular target: T1, USP7 CD + UBL 1-5 (Homo sapiens, UniProt Q93009); test: Surface plasmon resonance assay (SPR); assay type: binding
T1 construct: USP7 CD +
Procedure: The surface plasmon resonance experiments were performed using a Cytiva (formerly GE Healthcare) Biacore 8K equipped with a Series S Sensor Chip SA. The ligands were immobilized via a biotin-modified biotin acceptor peptide. USP7 Ligands were diluted in running buffer (HBS-P+2% DMSO; 10 mM HEPES, pH 7.4, 150 mM NaCl, 1 mM DTT, 0.05% P20, 2% DMSO) to 100 μg/mL and injected at […] until a density between 500-10,000 RU was reached on flow-cell two of each channel, and flow cell one was left blank to serve as a reference surface. Both surfaces were washed until a stable baseline was achieved then 30 startup cycles to condition the surface. To collect kinetic and steady-state binding data, the small molecule analytes were prepared in three-fold dilution series in HBS-P+2% DMSO running buffer. Analytes were injected over both flow cells at a flow rate of […] at 25° C. The complex was allowed to associate for 60 seconds and dissociate for 300 seconds. Data were collected at 10 Hz. The data were fit to a simple 1:1 interaction model global data analysis within Cytiva Biacore Insight Evaluation Software.

[1] = steady-state KD, read-out: SPR USP7 CD + UBL 1-5 (KD_ss)

T1 sequence (Q93009 208-1102 limits assumed): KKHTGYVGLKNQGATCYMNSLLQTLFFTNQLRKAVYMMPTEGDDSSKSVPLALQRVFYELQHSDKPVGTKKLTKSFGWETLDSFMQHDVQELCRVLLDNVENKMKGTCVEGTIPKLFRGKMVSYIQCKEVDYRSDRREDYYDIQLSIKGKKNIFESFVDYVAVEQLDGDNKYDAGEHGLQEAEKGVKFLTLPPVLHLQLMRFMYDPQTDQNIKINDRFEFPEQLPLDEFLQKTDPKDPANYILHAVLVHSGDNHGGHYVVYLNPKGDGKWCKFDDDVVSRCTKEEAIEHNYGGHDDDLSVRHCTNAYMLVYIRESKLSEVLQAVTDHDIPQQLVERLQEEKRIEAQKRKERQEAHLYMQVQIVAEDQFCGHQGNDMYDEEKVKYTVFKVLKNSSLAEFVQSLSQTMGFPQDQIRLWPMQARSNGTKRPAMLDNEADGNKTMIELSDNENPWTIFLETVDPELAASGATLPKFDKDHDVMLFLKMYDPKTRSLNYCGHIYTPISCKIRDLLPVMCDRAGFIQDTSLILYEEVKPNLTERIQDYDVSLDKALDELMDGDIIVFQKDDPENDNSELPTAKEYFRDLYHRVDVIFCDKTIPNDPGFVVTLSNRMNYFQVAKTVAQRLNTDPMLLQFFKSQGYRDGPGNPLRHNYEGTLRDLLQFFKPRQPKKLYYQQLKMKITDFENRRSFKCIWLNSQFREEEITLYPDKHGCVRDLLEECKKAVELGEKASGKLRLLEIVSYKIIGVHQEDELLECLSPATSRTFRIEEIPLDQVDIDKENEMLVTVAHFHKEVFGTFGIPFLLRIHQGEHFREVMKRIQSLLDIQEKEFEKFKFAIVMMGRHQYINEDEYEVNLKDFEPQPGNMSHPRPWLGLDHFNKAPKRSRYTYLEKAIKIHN
USP7, sequence (Q93009 whole entry): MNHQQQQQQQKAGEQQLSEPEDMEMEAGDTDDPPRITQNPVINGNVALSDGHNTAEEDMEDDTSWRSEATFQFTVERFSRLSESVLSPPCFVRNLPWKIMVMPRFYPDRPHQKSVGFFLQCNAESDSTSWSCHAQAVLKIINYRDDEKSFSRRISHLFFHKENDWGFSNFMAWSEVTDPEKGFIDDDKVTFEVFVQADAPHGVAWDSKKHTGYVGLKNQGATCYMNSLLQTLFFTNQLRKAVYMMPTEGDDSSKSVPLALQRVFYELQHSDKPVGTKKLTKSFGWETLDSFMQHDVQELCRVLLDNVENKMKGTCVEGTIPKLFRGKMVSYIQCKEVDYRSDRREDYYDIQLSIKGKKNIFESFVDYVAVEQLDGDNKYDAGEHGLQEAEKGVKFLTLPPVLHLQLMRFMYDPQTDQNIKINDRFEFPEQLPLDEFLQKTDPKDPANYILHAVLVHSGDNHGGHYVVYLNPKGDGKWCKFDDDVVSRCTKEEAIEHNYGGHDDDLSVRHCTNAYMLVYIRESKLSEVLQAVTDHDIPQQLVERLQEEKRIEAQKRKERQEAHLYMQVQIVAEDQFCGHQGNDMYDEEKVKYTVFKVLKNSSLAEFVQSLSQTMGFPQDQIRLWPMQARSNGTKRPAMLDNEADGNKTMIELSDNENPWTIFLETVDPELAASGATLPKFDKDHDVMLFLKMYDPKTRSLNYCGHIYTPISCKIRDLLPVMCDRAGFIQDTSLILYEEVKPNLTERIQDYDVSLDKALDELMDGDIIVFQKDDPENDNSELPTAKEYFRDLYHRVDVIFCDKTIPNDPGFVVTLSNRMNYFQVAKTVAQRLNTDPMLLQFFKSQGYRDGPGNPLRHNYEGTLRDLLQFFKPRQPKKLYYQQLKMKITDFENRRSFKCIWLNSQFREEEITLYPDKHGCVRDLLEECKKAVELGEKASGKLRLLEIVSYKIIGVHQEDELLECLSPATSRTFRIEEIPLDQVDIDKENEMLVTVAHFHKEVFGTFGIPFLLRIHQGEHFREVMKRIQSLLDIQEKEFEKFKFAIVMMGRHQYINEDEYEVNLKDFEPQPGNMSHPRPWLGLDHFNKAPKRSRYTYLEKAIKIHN

SMILES	IC50 (USP7) [µM]	Kd (USP7 CD + UBL 1-5; [1]) [µM]	Kd (USP7 CD + UBL 1-5; kinetic KD, read-out: SPR USP7 CD + UBL 1-5 (KD_kinetic)) [µM]
CCc1c(-c2ccc(C(=O)NCCCNC(=O)CCOCCOCCOCCOCCNC(=O)OC(C)(C)C)nc2)cnc(N)c1-c1ccc(O)cc1 [U58]	1 to 100	1 to 100	–
C[C@H](CC(=O)N1CCC(O)(Cn2cnc(N3CCN(CCN)CC3)cc2=O)CC1)c1ccccc1 [U59]	1 to 100	< 1	–
CCc1c(-c2ccc3[nH]ncc3c2)cnc(CNC(=O)OC(C)(C)C)c1-c1ccc(O)cc1 [U60]	1 to 100	1 to 100	–
CCc1c(-c2ccc(C(=O)NCCN)nc2)cnc(N)c1-c1ccc(O)cc1 [U61]	< 1	< 1	–
CCc1c(-c2ccc(C(=O)NC)nc2)cnc(NCCN)c1-c1ccc(O)cc1 [U62]	1 to 100	< 1	–
CCc1c(-c2ccc3[nH]ncc3c2)cnc(CN)c1-c1ccc(O)cc1 [U63]	1 to 100	1 to 100	–
CCc1c(-c2ccc(O)cc2)cnc(C=O)c1-c1ccc(O)cc1 [U64]	1 to 100	1 to 100	–
CCc1c(-c2ccc3[nH]ncc3c2)cnc(C=O)c1-c1ccc(O)cc1 [U65]	1 to 100	1 to 100	–
CC(C)(C)OC(=O)N1CCC(C(=O)Nc2nc3ccc(N(S(=O)(=O)c4cccs4)S(=O)(=O)c4cccs4)cc3s2)CC1 [U66]	> 100	1 to 100	–
O=C(Nc1nc2ccc(NS(=O)(=O)c3cccs3)cc2s1)C1CCNCC1 [U67]	> 100	1 to 100	–
O=C(Nc1nc2ccc(NS(=O)(=O)c3cccs3)cc2s1)c1ccco1 [U68]	> 100	1 to 100	–
C[C@H](CC(=O)N1CCC(O)(Cn2cnc(NCCN3CCN(CCN=[N+]=[N-])CC3)cc2=O)CC1)c1ccccc1 [U69]	< 1	< 1	–
CCc1c(-c2ccc(C(=O)NC)nc2)ccc(NCCN=[N+]=[N-])c1-c1ccc(O)cc1 [U70]	1 to 100	1 to 100	–
CCc1c(-c2ccc(O)cc2)cnc(NCCN=[N+]=[N-])c1-c1ccc(C(=O)NC)nc1 [U71]	1 to 100	< 1	–
CN1CCC(C(=O)Nc2nc3ccc(NS(=O)(=O)c4ccc5c(c4)CC(=O)N5C)cc3s2)CC1 [U72]	> 100	> 100	–
CCn1cc(S(=O)(=O)Nc2ccc3nc(NC(=O)C4CCN(C)CC4)sc3c2)cn1 [U73]	1 to 100	> 100	–
CN1CCC(C(=O)Nc2nc3ccc(NS(=O)(=O)CC4CC4)cc3s2)CC1 [U74]	> 100	1 to 100	–
CN1CCC(C(=O)Nc2nc3ccc(N(C)S(=O)(=O)c4cccs4)cc3s2)CC1 [U75]	> 100	> 100	–
CCc1c(-c2ccc3n[nH]cc3c2)cnc(CNC(=O)OC(C)C)c1-c1ccc(O)cc1 [U76]	1 to 100	1 to 100	–
CN1CCCn2nc(C(=O)Nc3nc4ccc(NS(=O)(=O)c5cccs5)cc4s3)cc2C1 [U77]	> 100	1 to 100	1 to 100
CCOC(=O)NCc1ccc(-c2ccc3n[nH]cc3c2)c(CC)c1-c1ccc(O)cc1 [U78]	1 to 100	1 to 100	–
CN1CCC(C(=O)Nc2nc3ncc(NS(=O)(=O)c4cccs4)cc3s2)CC1 [U79]	> 100	> 100	–
CS(=O)(=O)c1nccc(Nc2nc3ccc(NS(=O)(=O)c4cccs4)cc3s2)n1 [U80]	> 100	1 to 100	–
Cc1ccsc1S(=O)(=O)Nc1ccc2nc(NC(=O)C3CCN(C)CC3)sc2c1 [U81]	> 100	1 to 100	–
CCc1c(-c2ccc3c(cnn3CCN)c2)cnc(CNC(=O)OC(C)(C)C)c1-c1ccc(O)cc1 [U82]	1 to 100	1 to 100	–
NCc1cc(Nc2nc3ccc(NS(=O)(=O)c4cccs4)cc3s2)ncn1 [U83]	> 100	1 to 100	–
O=C(O)c1ccc(Nc2nc3ccc(NS(=O)(=O)c4cccs4)cc3s2)nn1 [U84]	> 100	1 to 100	–
O=C(O)c1ccnc(Nc2nc3ccc(NS(=O)(=O)c4cccs4)cc3s2)n1 [U85]	> 100	> 100	–
CCc1c(-c2ccc3[nH]ncc3c2)c(C#N)nc(CNC(=O)OC(C)(C)C)c1-c1ccc(O)cc1 [U86]	1 to 100	1 to 100	–
